Reference: ChEMBL document CHEMBL3867424, “Exploring the readthrough of nonsense mutations by non-acidic Ataluren analogues selected by ligand-based virtual screening” (Eur J Med Chem, 2016)
Active and inactive are the calls of the source. The rule behind the calls is not given here.

Legend:
[1] = Cytotoxicity against human HeLa cells assessed as reduction in cell viability at 12 uM measured after 24 to 72 hrs; type: toxicity, cell-based
HeLa = assay: Binding affinity to Photinus pyralis luciferase mRNA harboring the UGA premature stop codon expressed in human HeLa cells assessed as suppression of nonsense mutations by read-through of premature stop codon at 12 uM measured after 24 hrs by luminescence analysis; type: cell-based
IB3-1 [2] = assay: Binding affinity to CFTR mRNA UGA mutant in human IB3-1 cells carrying W1282X mutation in CFTR gene assessed as increase in CFTR expression measured after 24 to 72 hrs by Western blot analysis; type: cell-based
[3] = Cytotoxicity against human HeLa cells assessed as reduction in cell viability at 300 ug/ml measured after 24 to 72 hrs; type: toxicity, cell-based
IB3-1 [4] = assay: (§1) Binding affinity to CFTR mRNA UGA mutant in human IB3-1 cells carrying W1282X mutation in CFTR gene assessed as suppression of nonsense mutations by read-through of UGA premature stop codon measured as induction of CFTR re-expression after 24 hrs by DAPI/Alexa-488/WGA-Alexa594 staining-based immunofluorescence analysis; type: cell-based
IB3-1 [5] = assay: as §1, with “localization” for “induction”, “in cell membrane” for “re-expression”; type: cell membranes

Row | SMILES | Activity [1] | other results
1 | N#Cc1cccc(-c2nc(-c3ccccn3)no2)c1 | Non-Toxic | 
2 | Cc1cccc(-c2nc(-c3ccccc3)no2)c1 | Non-Toxic | 
3 | Cc1cccc(-c2nc(-c3ccncc3)no2)c1 | Non-Toxic | 
4 | Cc1cccc(-c2nc(-c3cccnc3)no2)c1 | Non-Toxic | 
5 | O=C(O)c1cccc(-c2noc(-c3ccccc3F)n2)c1 [ATALUREN] | Non-Toxic | Activity (HeLa): Active; Activity (IB3-1 [2]): Active
6 | CN[C@@H]1[C@@H](O)[C@@H](O[C@H]2[C@H](O)[C@@H](O[C@H]3O[C@H](C(C)O)[C@@H](O)[C@H](O)[C@H]3N)[C@H](N)C[C@@H]2N)OC[C@]1(C)O (some centres undefined) |  | Activity [3]: Toxic
7 | Cc1cccc(-c2nc(-c3ccccn3)no2)c1 | Non-Toxic | Activity (IB3-1 [4]): Active; Activity (IB3-1 [5]): Active; Activity (HeLa): Active; Activity (IB3-1 [2]): Active
8 | Cc1cccc(-c2noc(-c3ccccc3C)n2)c1 | Non-Toxic | 
